Active and inactive are the calls of the source. No cut-off for these calls is given here.
Tests used:
Homo sapiens [1] = species on record: Homo sapiens; assay: (§1) Induction of lipogenesis in human myotubes at 10 uM after 4 days by scintillation counting analysis in presence of [1-14C]acetate relative to control; format: functional
[2] = target: T1, Liver X receptor (Homo sapiens) (UniProt Q13133+P55055); assay: Antagonist activity at LXR in human myotubes assessed as downregulation of SCD1 expression at 10 uM after 4 days by qPCR analysis
Homo sapiens [3] = species on record: Homo sapiens; assay: Inhibition of tularic-induced lipogenesis in human myotubes at 10 uM after 4 days by scintillation counting analysis in presence of [1-14C]acetate relative to control; format: functional
Homo sapiens [4] = species on record: Homo sapiens; assay: Induction of lipogenesis in human myotubes at 1 uM after 4 days by scintillation counting analysis in presence of [1-14C]acetate; format: functional
[5] = target: T1, Liver X receptor (Homo sapiens); assay: Agonist activity at LXR in human myotubes assessed as upregulation of SCD1 expression at 10 uM after 4 days by qPCR analysis
[6] = as §1; format: functional

CC(C)CC[C@H](O)[C@@H](C)[C@H]1CC[C@H]2[C@@H]3CC=C4C[C@@H](O)CC[C@]4(C)[C@H]3CC[C@]12C
Activity (Homo sapiens [1]): inactive | Activity [2]: Active | inhibition (Homo sapiens [3]): Active

O=S(=O)(c1ccccc1)N(CC(F)(F)F)c1ccc(C(O)(C(F)(F)F)C(F)(F)F)cc1
Activity (Homo sapiens [4]): Active

CC(C)CC[C@H](O)[C@@H](C)COCc1ccc(S(=O)(=O)N2CCCC2)cc1
Activity [5]: Active | fold change (FC) [6]: 2

Source: ChEMBL document CHEMBL3097993, “Synthesis and initial biological evaluation of new mimics of the LXR-modulator 22(S)-hydroxycholesterol” (2014)
